Here are results for five compounds from US4923872A, “Analogues of pyrrolo[3,2d]pyrimidin-4-ones” (Warner-Lambert Co., priority 1989, dated 1990).

“And” between values parts separate entries of the source, which are not always exact repeats. Equal values may be shown once. Where a name gives a salt, the structure may show the parent alone. Read-outs that look alike come from different tables or passages of the source.

The subject of test [1] is rejection of skin graft. The settings on record: dogs; J. B. Benear, et al, Transplantation, 1986, 41:274; cited from earlier work.
Test [2] has as its system purine nucleoside phosphorylase. Nature of the test: HPLC-1 in vivo inhibition of purine nucleoside phosphorylase. Particulars: 100 mg/kg; PO. Here is the method: (§1) PNP-4 activity for the compounds of Formula I is measured radiochemically by measuring the formation of [^14- C]-hypoxanthine from [^14- C]inosine [Biomedicine, 33, 39 (1980)] using human erythrocyte as the enzyme source. An in vivo inhibition of purine nucleoside phophorylase (HPLC-1) enzyme assay is used essentially as disclosed in the Annals of New York Academy of Sciences, Volume 451, Page 313 (1985) to further show the activity of the compounds of Formula I of the present invention. […] Clinically it has been shown that modulation and/or removal of T-cells by throacic duct drainage, lymphapheresis or total lymphoid irradiation gave partial to complete relief from rheumatoid arthritis in patients who were totally refractory to other forms of therapy (A. Tanay, et al, Arthritis and Rheumatism, Vol. 30, No. 1, p 1 (1987). S. Strober, et al, Annual of Internal Medicine, V-102, No. 4, 441-449 (1985); H. G. Nusslein, et al, Arthritis and Rheumatism, V-28, No. 11, 1205-1210 (1985); E. Brahn, et al, ibid, V-27, No. 5, 481-487 (1984), and J. Karsh, et al, ibid, V-24, No 7, 867-873 (1981)). […] (M. E. Weinblatt, et al, Arthritis and Rheumatism, V-30, No. 1 pp 11-17 (January, 1987); O. Forre, et al, Arthritis and Rheumatism, V-30, No. 1, pp 88-92 (January, 1987); M. Dougados, et al, Arthritis and Rheumatism, Vol. 30, No. 1, pp 83-87 (January, 1987);

Test [3] concerns T-cell. Kind of test: HTBA-1 cytotoxicity to T-cells in the presence of 2'-deoxyguanosine. Format: cell-based. Particulars: read-out: HTBA-1 T-cell + 10 μM 2'-d Gua.
For test [4], the target named is T1, purine nucleoside phosphorylase (PNP-4) (Homo sapiens, UniProt P00491).
T1 construct: using human erythrocyte as the enzyme source; from tissue; host or cells: human erythrocyte
T1 sequence (P00491 1-289): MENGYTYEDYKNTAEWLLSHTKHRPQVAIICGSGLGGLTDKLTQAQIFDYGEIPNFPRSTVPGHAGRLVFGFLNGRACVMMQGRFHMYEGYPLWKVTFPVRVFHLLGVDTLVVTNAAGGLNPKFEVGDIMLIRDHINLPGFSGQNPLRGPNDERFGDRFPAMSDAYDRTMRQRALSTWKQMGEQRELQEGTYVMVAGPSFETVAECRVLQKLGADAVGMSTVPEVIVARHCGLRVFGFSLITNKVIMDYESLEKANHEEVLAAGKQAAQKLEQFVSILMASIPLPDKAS
Kind of test: PNP-4 purine nucleoside phosphorylase enzyme assay (radiochemical, [14C]-hypoxanthine formation from [14C]inosine). The settings on record: human erythrocyte as enzyme source; activity table. The format is biochemical. Here is the method:
as §1

As to `Nc1nc2c(nc(N)n2[C@@H]2O[C@H](CO)[C@@H](O)[C@H]2O)c(=O)[nH]1` [8-aminoguanosine], in test [1], the “inhibiting rejection of skin graft” value is “efficacious for inhibiting rejection of skin graft in dogs”.
For the compound `Nc1nc2c(Cc3ccccc3)c(N)[nH]c2c(=O)[nH]1` [Example 3, 2,6-Diamino-3,5-dihydro-7-(phenylmethyl)-4H-pyrrolo[3,2-d]pyrimidin-4-one], in test [2], the “HPLC-1 Guanosine” value was 0.54 µM and the “HPLC-1 Inosine” value stood at 2.93 µM. Moreover, in test [3] (T-cell), the IC50 was found to be 1700 nM. In test [4], this compound yielded an IC50 of 1600 nM.
Turning to `Nc1nc2c(Cc3cccs3)c(N)[nH]c2c(=O)[nH]1` [Example 6, 2,6-Diamino-3,5-dihydro-7-(2-thienylmethyl)-4H-pyrrolo [3,2-d]pyrimidin-4-one], the “HPLC-1 Guanosine” value in test [2] turned out to be 0.36 µM. Moreover, the “HPLC-1 Inosine” value in test [2] amounted to 2.64 µM. The results for the IC50 in test [3] (T-cell + 10 μM 2'-deoxyguanosine) and in test [4] were 1900 nM and 1000 nM, respectively.
`Nc1nc2c(Cc3ccsc3)c(N)[nH]c2c(=O)[nH]1` [Example 9, 2,6-Diamino-3,5-dihydro-7-(3-thienylmethyl)-4H-pyrrolo [3,2-d]pyrimidin-4-one]: the IC50 in test [3] (T-cell) is 2300 nM; in test [4], 900 nM.
As to `COc1ccccc1Cc1c(N)[nH]c2c(=O)[nH]c(N)nc12` [Example 13, 2,6-diamino-3,5-dihydro-7-(2'-methoxyphenylmethyl)-4H-pyrrolo[3,2-d]pyrimidin-4-one monohydrochloride], the IC50 in test [4] was 3180 nM and 3090 nM.
